Measured values from patent US8629328B2 (Monsanto Technology LLC, priority 2006, dated 2014).
Several values for one entry are separate records, joined by “and”; a condition that tells them apart may be missing. Equal values may be shown once. Read-outs that look alike come from different tables or passages of the source.

How the values were obtained:
[1] = tested on: soybean plants containing DMO-encoding polynucleotide construct (Events 1-5)
Source text: Non-transgenic and transgenic soybean seeds were planted around the beginning of the growing season at the time of optimum growth conditions depending on soil moisture, temperature, and seeding depth. […] The design details were as follows: 6 locations, 2 replications/location, 2 rows/plot, row length 12 feet (+3 ft alley), 9 seeds/foot, 108 seeds/row, 5 events (Events 1-4 and a fifth event that was segregating); and 4 treatments as shown below in Table 5. In all 240 plots were planted at 6 locations (40 per location).
Four non-transgenic border rows were planted all around the trial using a known commercial line such as A3525. Optimum production and management practices known in the art were followed. […] The field was irrigated as needed according to standard practices.
Seed planting and pre-emergence treatment were carried out approximately one-month apart in late spring in Monmouth, Ill.

[2] = tested on: transformed cotton plants comprising a DMO coding region
Source text: Several DNA constructs carrying a DMO coding region as disclosed herein with a transit peptide (e.g., PsRbcS CTP, CTP1, CTP2) under the control of plant gene expression elements such as a promoter (e.g. PC1SV, FMV, or e35S), and a 3′UTR (e.g. E6; Accession #U30508) were produced and transformed into cotton (Gossypium hirsutum) as follows. Nucleotide sequences/and or patent references for various expression elements are disclosed in co-pending application U.S. Ser. No. 60/891,675. Media used are noted in Table 13.
Cotton transformation was performed, for instance as described according to U.S. Patent Application Publication 20040087030, via an embryogenic approach. Explants of cotton cv Coker 130 were grown in vitro and with a liquid suspension of Agrobacterium tumefaciens carrying a DNA construct of interest, using selection on kanamycin containing media. Putative transgenic plantlets were then transferred to soil to obtain mature cotton plants.

[3] = Event 1, Post at V3: 1.5 lb/acre 4 weeks after planting
[4] = Event 1, Pre & Post: 1.5 lb/acre at planting and 1.5 lb/acre 4 weeks after planting
[5] = Event 1, Pre at sowing: 1.5 lb/acre at planting
[6] = Event 2, Post at V3: 1.5 lb/acre 4 weeks after planting
[7] = Event 2, Pre & Post: 1.5 lb/acre at planting and 1.5 lb/acre 4 weeks after planting
[8] = Event 2, Pre at sowing: 1.5 lb/acre at planting
[9] = Event 3, Post at V3: 1.5 lb/acre 4 weeks after planting
[10] = Event 3, Pre & Post: 1.5 lb/acre at planting and 1.5 lb/acre 4 weeks after planting
[11] = Event 3, Pre at sowing: 1.5 lb/acre at planting
[12] = Event 4, Post at V3: 1.5 lb/acre 4 weeks after planting
[13] = Event 4, Pre & Post: 1.5 lb/acre at planting and 1.5 lb/acre 4 weeks after planting
[14] = Event 4, Pre at sowing: 1.5 lb/acre at planting
[15] = Event 5 (segregating), Post at V3: 1.5 lb/acre 4 weeks after planting
[16] = Event 5 (segregating), Pre & Post: 1.5 lb/acre at planting and 1.5 lb/acre 4 weeks after planting
[17] = Event 5 (segregating), Pre at sowing: 1.5 lb/acre at planting

COc1c(Cl)ccc(Cl)c1C(=O)O [dicamba, 3,6-dichloro-o-anisic acid]
% GR 6/27 [1, 3]: 0% | % GR 7/5 [1, 3]: 0% | % Inj 6/7 [1, 3]: 0% | % Inj 6/13 [1, 3]: 0% | % Inj 6/20 [1, 3]: 0% | % Inj 6/27 [1, 3]: 5% and 7% | % Inj 7/5 [1, 3]: 0% | % GR 6/27 [1, 4]: 0% and 3% | % GR 7/5 [1, 4]: 0% | % Inj 6/7 [1, 4]: 0% | % Inj 6/13 [1, 4]: 0% and 2% | % Inj 6/20 [1, 4]: 0% and 2% | % Inj 6/27 [1, 4]: 5% | % Inj 7/5 [1, 4]: 0% | % GR 6/27 [1, 5]: 0% | % GR 7/5 [1, 5]: 0% | % Inj 6/7 [1, 5]: 0% | % Inj 6/13 [1, 5]: 0% and 2% | % Inj 6/20 [1, 5]: 0% | % Inj 6/27 [1, 5]: 1% and 2% | % Inj 7/5 [1, 5]: 0% | Dead or Stunted [1, 5]: 0 | % GR 6/27 [1, 6]: 0% | % GR 7/5 [1, 6]: 0% | % Inj 6/7 [1, 6]: 0% | % Inj 6/13 [1, 6]: 0% | % Inj 6/20 [1, 6]: 0% | % Inj 6/27 [1, 6]: 3% | % Inj 7/5 [1, 6]: 0% and 2% | % GR 6/27 [1, 7]: 0% | % GR 7/5 [1, 7]: 0% | % Inj 6/7 [1, 7]: 0% | % Inj 6/13 [1, 7]: 0% | % Inj 6/20 [1, 7]: 0% | % Inj 6/27 [1, 7]: 1% and 2% | % Inj 7/5 [1, 7]: 2% and 0% | Dead or Stunted [1, 7]: 0 | % GR 6/27 [1, 8]: 0% | % GR 7/5 [1, 8]: 0% | % Inj 6/7 [1, 8]: 0% | % Inj 6/13 [1, 8]: 0% | % Inj 6/20 [1, 8]: 0% | % Inj 6/27 [1, 8]: 5% and 2% | % Inj 7/5 [1, 8]: 0% | Dead or Stunted [1, 8]: 0 | % GR 6/27 [1, 9]: 3% and 0% | % GR 7/5 [1, 9]: 0% | % Inj 6/7 [1, 9]: 0% | % Inj 6/13 [1, 9]: 0% | % Inj 6/20 [1, 9]: 0% | % Inj 6/27 [1, 9]: 3% and 5% | % Inj 7/5 [1, 9]: 0% and 3% | Dead or Stunted [1, 9]: 0 | % GR 6/27 [1, 10]: 0% | % GR 7/5 [1, 10]: 0% | % Inj 6/7 [1, 10]: 0% | % Inj 6/13 [1, 10]: 0% and 2% | % Inj 6/20 [1, 10]: 0% | % Inj 6/27 [1, 10]: 3% | % Inj 7/5 [1, 10]: 2% and 0% | Dead or Stunted [1, 10]: 0 | % GR 6/27 [1, 11]: 0% | % GR 7/5 [1, 11]: 0% | % Inj 6/7 [1, 11]: 0% | % Inj 6/13 [1, 11]: 4% and 2% | % Inj 6/20 [1, 11]: 0% | % Inj 7/5 [1, 11]: 0% and 3% | Dead or Stunted [1, 11]: 0 | % GR 6/27 [1, 12]: 0% | % GR 7/5 [1, 12]: 0% | % Inj 6/7 [1, 12]: 0% | % Inj 6/13 [1, 12]: 0% | % Inj 6/20 [1, 12]: 0% | % Inj 6/27 [1, 12]: 3% | % Inj 7/5 [1, 12]: 0% | Dead or Stunted [1, 12]: 0 | % GR 6/27 [1, 13]: 8% and 3% | % GR 7/5 [1, 13]: 2% and 0% | % Inj 6/7 [1, 13]: 0% | % Inj 6/13 [1, 13]: 0% and 1% | % Inj 6/20 [1, 13]: 0% | % Inj 6/27 [1, 13]: 3% | % Inj 7/5 [1, 13]: 2% and 0% | Dead or Stunted [1, 13]: 0 | % GR 6/27 [1, 14]: 0% | % GR 7/5 [1, 14]: 0% | % Inj 6/7 [1, 14]: 0% | % Inj 6/13 [1, 14]: 3% and 4% | % Inj 6/20 [1, 14]: 0% | % Inj 6/27 [1, 14]: 5% and 2% | % Inj 7/5 [1, 14]: 0% | Dead or Stunted [1, 14]: 0 | % GR 6/27 [1, 15]: 0% and 5% | % GR 7/5 [1, 15]: 0% | % Inj 6/7 [1, 15]: 0% | % Inj 6/13 [1, 15]: 0% | % Inj 6/20 [1, 15]: 0% | % Inj 6/27 [1, 15]: 7% and 5% | % Inj 7/5 [1, 15]: 2% | Dead or Stunted [1, 15]: 15 | % GR 6/27 [1, 16]: 5% and 0% | % GR 7/5 [1, 16]: 0% | % Inj 6/7 [1, 16]: 0% | % Inj 6/13 [1, 16]: 15% and 10% | % Inj 6/20 [1, 16]: 10% | % Inj 6/27 [1, 16]: 3% and 1% | % Inj 7/5 [1, 16]: 0% | Dead or Stunted [1, 16]: 23 and 20 | % GR 6/27 [1, 17]: 0% | % GR 7/5 [1, 17]: 0% | % Inj 6/7 [1, 17]: 0% | % Inj 6/13 [1, 17]: 15% and 8% | % Inj 6/20 [1, 17]: 15% and 10% | % Inj 6/27 [1, 17]: 5% and 2% | % Inj 7/5 [1, 17]: 0% | Dead or Stunted [1, 17]: 24 and 14 | injury in field, overall ([1]; pre- and post-emergence applications of dicamba, all transgenic soybean plants): no or very little injury | tolerance to subsequent post-emergent treatment ([2]; 0.5 lb/acre at V3-4 followed by 1 or 2 lb/acre at V5 or later stages): still tolerant | tolerance ([2]; post-emergent at V4-5 growth stage, 561 g ae/ha (0.5 lb/a)): tolerant | tolerance of R1 transgenic seeds and plants ([2]; pre-emergence or pre-emergence and post-emergence dicamba treatment): tolerant
